Values after ≈ are worked out from the molar mass of the structure shown. Read-outs that look alike come from different tables or passages of the source.
Experiments:
Experiment in all cases: In vitro antimicrobial activity, MIC by broth microdilution (CLSI)
Format in all cases: cell-based
[1] = system: K. pneumoniae SR01358; conditions: Klebsiella pneumoniae
Method: (§1) Compound (I) of the invention was evaluated for in vitro antimicrobial activity thereof.
(§2) Measurement of Minimum Inhibitory Concentration (MIC: μg/mL) was conducted according to CLSI (Clinical and Laboratory Standards Institute) method, and the amount of bacteria for inoculation was 5×10^5 cfu/mL, and cation-adjusted Iso-Sensitest broth containing human Apo-transferrin was used as a test medium, and the experiment was conducted using broth microdilution method. The bacteria used are listed below.

[2] = system: A. baumannii JMI2346; conditions: Acinetobacter baumannii
Method: as §1, §2

[3] = system: A. baumannii JMI7; conditions: Acinetobacter baumannii
Method: as §1, §2

[4] = system: E. Coli JMI1890; conditions: Escherichia coli, read-out: Minimum Inhibitory Concentration (MIC) E. Coli JMI:1890
Method: as §1, §2

[5] = SR01358, KPC-2, ESBL and KPC-type carbapenemase producing strain, 5×10^5 cfu/mL, cation-adjusted Iso-Sensitest broth containing human Apo-transferrin, read-out: Minimum Inhibitory Concentration (MIC) K. pneumoniae SR01358
[6] = JMI2346, OXA-51, TEM, ESBL and OXA-type carbapenemase producing strain, 5×10^5 cfu/mL, cation-adjusted Iso-Sensitest broth containing human Apo-transferrin, read-out: Minimum Inhibitory Concentration (MIC) A. baumannii JMI:2346
[7] = JMI7, PER-1, OXA-23, 51, ESBL and OXA-type carbapenemase producing strain, 5×10^5 cfu/mL, cation-adjusted Iso-Sensitest broth containing human Apo-transferrin, read-out: Minimum Inhibitory Concentration (MIC) A. baumannii JMI:7
[8] = PER-1, TEM-1, ESBL producing strain, 5×10^5 cfu/mL, cation-adjusted Iso-Sensitest broth containing human Apo-transferrin

C[C@@H]1S[C@@H]2[C@H](NC(=O)/C(=N\OC(C)(C)C(=O)[O-])c3csc(N)n3)C(=O)N2C(C(=O)[O-])=C1C[N+]1(CCN2C(=O)c3cc(O)c(O)cc3C2=O)CCCC1.[Na+] [Compound I-1]
MIC [1, 5]: ≤ 0.031 µg/mL | MIC [2, 6]: 16 µg/mL | MIC [3, 7]: 1 µg/mL | MIC [4, 8]: 1 µg/mL

C[C@@H]1S[C@@H]2[C@H](NC(=O)/C(=N\OC(C)(C)C(=O)[O-])c3csc(N)n3)C(=O)N2C(C(=O)O)=C1C[N+]1(CCON2C(=O)c3cc(O)c(O)cc3C2=O)CCCC1 [Compound I-27]
MIC [1, 5]: ≤ 0.031 µg/mL | MIC [2, 6]: 4 µg/mL (≈ 5.17 µM) | MIC [3, 7]: 0.5 µg/mL (≈ 0.646 µM) | MIC [4, 8]: 0.5 µg/mL (≈ 0.646 µM)

C[C@@H]1S[C@@H]2[C@H](NC(=O)/C(=N\OC(C)(C)C(=O)[O-])c3csc(N)n3)C(=O)N2C(C(=O)[O-])=C1C[N+]1(CCNC(=O)C(=O)c2cc(O)c(O)c(Cl)c2)CCCC1.[Na+] [Compound I-8]
MIC [1, 5]: 0.25 µg/mL | MIC [2, 6]: 16 µg/mL | MIC [3, 7]: 1 µg/mL | MIC [4, 8]: 1 µg/mL

C[C@@H]1S[C@@H]2[C@H](NC(=O)/C(=N\OC(C)(C)C(=O)[O-])c3csc(N)n3)C(=O)N2C(C(=O)[O-])=C1C[N+]12CCC[C@H]1CN(C(=O)c1cc(O)c(O)c(F)c1)CC2.[Na+] (stereo partly drawn) [Compound I-68]
MIC [1, 5]: ≤ 0.031 µg/mL | MIC [2, 6]: 8 µg/mL | MIC [3, 7]: 2 µg/mL | MIC [4, 8]: 0.5 µg/mL

C[C@@H]1S[C@@H]2[C@H](NC(=O)/C(=N\OC(C)(C)C(=O)[O-])c3csc(N)n3)C(=O)N2C(C(=O)[O-])=C1C[N+]1(C)[C@@H]2CC[C@H]1C[C@@H](N1C(=O)c3cc(O)c(O)cc3C1=O)C2.[Na+] (stereo partly drawn) [Compound I-77]
MIC [1, 5]: ≤ 0.031 µg/mL | MIC [2, 6]: 1 µg/mL | MIC [3, 7]: 0.5 µg/mL | MIC [4, 8]: 0.25 µg/mL

C[C@@H]1S[C@@H]2[C@H](NC(=O)/C(=N\OC(C)(C)C(=O)[O-])c3csc(N)n3)C(=O)N2C(C(=O)[O-])=C1C[N+]12CCC[C@H]1CN(C(=O)C(=O)c1ccc(O)c(O)c1Cl)CC2.[Na+] (stereo partly drawn) [Compound I-76]
MIC [1, 5]: ≤ 0.031 µg/mL | MIC [2, 6]: 4 µg/mL | MIC [3, 7]: 0.5 µg/mL | MIC [4, 8]: 0.25 µg/mL

C[C@@H]1S[C@@H]2[C@H](NC(=O)/C(=N\OC(C)(C)C(=O)[O-])c3csc(N)n3)C(=O)N2C(C(=O)[O-])=C1C[N+]12CCC(CNC(=O)C(=O)c3cc(O)c(O)c(F)c3)(CC1)CC2.[Na+] [Compound I-81]
MIC [1, 5]: ≤ 0.031 µg/mL | MIC [2, 6]: 8 µg/mL | MIC [3, 7]: 2 µg/mL | MIC [4, 8]: 0.5 µg/mL

C[C@@H]1S[C@@H]2[C@H](NC(=O)/C(=N\OC(C)(C)C(=O)[O-])c3csc(N)n3)C(=O)N2C(C(=O)O)=C1C[N+]12CCC(Cn3[nH]c(=O)c4cc(O)c(O)cc4c3=O)(CC1)CC2 [Compound I-122]
MIC [1, 5]: ≤ 0.031 µg/mL | MIC [2, 6]: 2 µg/mL (≈ 2.5 µM) | MIC [3, 7]: 0.5 µg/mL (≈ 0.626 µM) | MIC [4, 8]: 0.25 µg/mL (≈ 0.313 µM)

C[C@@H]1S[C@@H]2[C@H](NC(=O)/C(=N\OC(C)(C)C(=O)[O-])c3csc(N)n3)C(=O)N2C(C(=O)O)=C1C[N+]12CCC(CC1)N(C(=O)C(=NO)c1cc(O)c(O)c(Cl)c1)CC2 [Compound I-138]
MIC ([1]; SR01358, read-out: Minimum Inhibitory Concentration (MIC) K. pneumoniae SR01358): ≤ 0.031 µg/mL | MIC ([2]; JMI2346, read-out: Minimum Inhibitory Concentration (MIC) A. baumannii JMI:2346): 4 µg/mL (≈ 4.87 µM) | MIC ([3]; JMI7, read-out: Minimum Inhibitory Concentration (MIC) A. baumannii JMI:7): 0.5 µg/mL (≈ 0.609 µM) | MIC [4]: 0.25 µg/mL (≈ 0.304 µM)

C[C@@H]1S[C@@H]2[C@H](NC(=O)/C(=N\OC(C)(C)C(=O)[O-])c3csc(N)n3)C(=O)N2C(C(=O)O)=C1C[N@+]1(C)[C@@H]2CC[C@H]1C[C@@H](NC(=O)c1cn(C3CC3)c3cc(O)c(O)c(Cl)c3c1=O)C2 [Compound I-120]
MIC [1, 5]: ≤ 0.031 µg/mL | MIC [2, 6]: 2 µg/mL (≈ 2.22 µM) | MIC [3, 7]: 0.5 µg/mL (≈ 0.556 µM) | MIC [4, 8]: 0.063 µg/mL (≈ 0.07 µM)

C[C@@H]1S[C@@H]2[C@H](NC(=O)/C(=N\OC(C)(C)C(=O)O)c3csc(N)n3)C(=O)N2C(C(=O)O)=C1C[N+]12CCC(CNC(=O)/C(=N\OC(C)(C)C(=O)[O-])c3ccc(O)c(O)c3Cl)(CC1)CC2 [Compound I-99]
MIC [1, 5]: ≤ 0.031 µg/mL | MIC [2, 6]: 16 µg/mL (≈ 17.4 µM) | MIC [3, 7]: 2 µg/mL (≈ 2.17 µM) | MIC [4, 8]: 1 µg/mL (≈ 1.09 µM)

C[C@@H]1S[C@@H]2[C@H](NC(=O)/C(=N\OC(C)(C)C(=O)[O-])c3csc(N)n3)C(=O)N2C(C(=O)[O-])=C1C[N+]12CCC(CN3C(=O)c4cc(O)c(O)cc4C3=O)(CC1)CC2.[Na+] [Compound I-73]
MIC [1, 5]: ≤ 0.031 µg/mL | MIC [2, 6]: 2 µg/mL | MIC [3, 7]: 0.25 µg/mL | MIC [4, 8]: 0.063 µg/mL

Source: patent US10174053B2, “2 substituted cephem compounds” (Glaxo Group Limited, priority 2012, dated 2019)
